The NIST ThermoML archive (doi:10.1021/acs.jced.9b00134)

How the values were obtained:
[1] = 293.15 K, 101.13 kPa, Vibrating tube method
[2] = refractive index (Na D-line) (dimensionless); xn = mol fraction of the nth substance listed; settings: 101.13 kPa, Liquid, Standard Abbe refractometry, x1 = 0.5
[3] = xn = mol fraction of the nth substance listed; settings: 101.13 kPa, Liquid, x1 = 0.5; for mass density: Vibrating tube method; for electrical conductivity: Alternating current cell with electrodes; for viscosity: Concentric cylinders viscometry

OCCO [1,2-ethanediol]
Settings	mass density [kg/m3]
[1], Liquid	1105

OCC(O)CO [glycerol]
Settings	mass density [kg/m3]
[1], Liquid	1238

OCCCCCCO [1,6-hexanediol]
Settings	mass density [kg/m3]
[1], Liquid	947

C[N+](C)(C)Cc1ccccc1.[Cl-] [trimethylbenzylammonium chloride] + OCCCCCCO
Settings	electrical conductivity, [3] [S/m]	mass density, [3] [kg/m3]	refractive index, [2]	viscosity, [3] [mPa·s]
293 K	–	1142.3	1.5143	–
298 K	0.0842	1132.6	1.5107	298.3
303 K	0.145	1126.2	1.5083	143.6
308 K	0.17	1119.7	1.5052	72.9
313 K	0.184	1113.4	1.5016	38.7
318 K	0.195	1107.1	1.4987	23.5
323 K	0.253	1100	1.4963	16.8

CCC(O)CO (stereo not given) [1,2-butanediol]
Settings	mass density [kg/m3]
[1], Liquid	1000

C[N+](C)(C)Cc1ccccc1.[Cl-] [trimethylbenzylammonium chloride] + CCC(O)CO
Settings	electrical conductivity, [3] [S/m]	mass density, [3] [kg/m3]	refractive index, [2]	viscosity, [3] [mPa·s]
293 K	–	1104	1.4982	–
298 K	0.194	1093	1.4956	231.7
303 K	0.312	1083	1.4921	128.5
308 K	0.382	1073	1.4892	64.2
313 K	0.437	1064	1.4851	34.5
318 K	0.465	1057	1.4823	22.1
323 K	0.532	1049	1.4781	17.9

C[N+](C)(C)Cc1ccccc1.[Cl-] [trimethylbenzylammonium chloride] + OCC(O)CO
Settings	electrical conductivity, [3] [S/m]	mass density, [3] [kg/m3]	refractive index, [2]	viscosity, [3] [mPa·s]
293 K	–	1170.3	1.5653	–
298 K	0.0688	1167.2	1.5612	383.9
303 K	0.115	1164.3	1.5587	159.6
308 K	0.123	1161.4	1.556	79.8
313 K	0.126	1158.4	1.5532	48.5
318 K	0.123	1155	1.5503	29.7
323 K	0.178	1152.4	1.5493	18.3

C[N+](C)(C)Cc1ccccc1.[Cl-] [trimethylbenzylammonium chloride] + OCCO
Settings	electrical conductivity, [3] [S/m]	mass density, [3] [kg/m3]	refractive index, [2]	viscosity, [3] [mPa·s]
293 K	–	1123.7	1.4806	–
298 K	0.539	1118	1.4763	137.3
303 K	0.706	1111.2	1.4731	96.5
308 K	0.843	1105.1	1.4695	54.6
313 K	0.902	1098	1.4652	28.9
318 K	0.965	1091	1.4611	20.7
323 K	1.02	1085	1.4587	14.2

C[N+](C)(C)Cc1ccccc1.[Cl-] [trimethylbenzylammonium chloride]
Settings	mass density [kg/m3]
[1], Crystal	1061

O=C([O-])[O-].[Na+].[Na+] [sodium carbonate]
Settings	mass density [kg/m3]
[1], Crystal	2516
